Experimental data from patent publication US8563549B2, “Pyrimidine derivatives used as PI-3 kinase inhibitors” (Novartis AG, priority 2006, dated 2013).
Where two headings read alike, the source gives them in different places.

What was measured:
[1] = tested on: A2780 ovarian cancer cells; assay: Cellular proliferation, Cell Titer Glo (Biological Method 4); assay type: cell-based; details: Homo sapiens, ovarian cancer cell line A2780
Method: In addition, many of the compounds of Table 1 were tested to determine their inhibitory activity in a cellular proliferation assay according to Biological Method 4.
The ability of the compounds of the invention to inhibit cellular proliferation were determined by using Cell Titer Glo, a commercially available assay from Promega Corporation. A2780 ovarian cancer cells were seeded in TC treated 96-well plates at a density of 1,000 per well in DMEM, 10% FBS, 1% Sodium Pyruvate, and 1% Penicillin Streptomycin for a minimum of 2 hrs prior to addition of compound. For each concentration of test compound, 2 μl (500×) aliquots of compound or 100% DMSO diluted in 500 μl of culture medium for 2× concentration then diluted 1× on the Cells. Cells were incubated for 72 hrs at 37° C., 5% CO2. After the 72 hour incubation, Cell Titer Glo reagent is added to determine number of viable cells remaining after exposure to the compound, and the EC50 value was calculated. The assay was performed according to the manufacturer's instruction (Promega Corporation, Madison, Wis. USA). Each experimental condition was performed in duplicate.

[2] = target: PI3 kinase alpha (Homo sapiens, UniProt P42336); assay: PI3K ATP depletion assay (Biological Method 1, Assay 3); assay type: biochemical
Sequence of PI3 kinase alpha (P42336 whole entry): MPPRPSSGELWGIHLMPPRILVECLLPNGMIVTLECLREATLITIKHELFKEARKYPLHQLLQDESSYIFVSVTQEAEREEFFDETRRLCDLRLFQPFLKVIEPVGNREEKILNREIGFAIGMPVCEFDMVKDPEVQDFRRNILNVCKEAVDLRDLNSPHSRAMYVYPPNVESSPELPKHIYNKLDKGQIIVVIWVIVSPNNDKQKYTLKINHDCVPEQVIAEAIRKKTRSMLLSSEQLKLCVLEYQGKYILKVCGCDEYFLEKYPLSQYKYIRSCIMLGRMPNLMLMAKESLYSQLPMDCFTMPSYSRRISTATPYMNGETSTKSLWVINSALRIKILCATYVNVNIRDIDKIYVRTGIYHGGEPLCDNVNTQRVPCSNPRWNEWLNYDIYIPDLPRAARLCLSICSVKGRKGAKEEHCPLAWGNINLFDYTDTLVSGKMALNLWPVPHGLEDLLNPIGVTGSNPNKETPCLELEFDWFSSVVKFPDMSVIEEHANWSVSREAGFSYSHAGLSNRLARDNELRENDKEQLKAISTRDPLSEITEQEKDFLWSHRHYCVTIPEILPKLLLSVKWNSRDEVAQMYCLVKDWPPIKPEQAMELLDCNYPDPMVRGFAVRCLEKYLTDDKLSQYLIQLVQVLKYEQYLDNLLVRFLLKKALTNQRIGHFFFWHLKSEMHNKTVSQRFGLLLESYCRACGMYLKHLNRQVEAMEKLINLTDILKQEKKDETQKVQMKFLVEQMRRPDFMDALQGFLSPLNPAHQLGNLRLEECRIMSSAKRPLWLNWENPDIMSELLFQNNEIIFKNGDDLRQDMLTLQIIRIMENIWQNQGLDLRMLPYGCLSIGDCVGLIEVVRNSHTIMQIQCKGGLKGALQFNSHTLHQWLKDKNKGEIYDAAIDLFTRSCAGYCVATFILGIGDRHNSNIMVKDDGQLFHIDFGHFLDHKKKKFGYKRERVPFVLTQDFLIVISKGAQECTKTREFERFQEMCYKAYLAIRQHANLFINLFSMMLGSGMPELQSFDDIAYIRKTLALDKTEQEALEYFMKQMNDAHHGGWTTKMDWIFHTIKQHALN
Sequence of PI3 kinase alpha (P27986 whole entry partner): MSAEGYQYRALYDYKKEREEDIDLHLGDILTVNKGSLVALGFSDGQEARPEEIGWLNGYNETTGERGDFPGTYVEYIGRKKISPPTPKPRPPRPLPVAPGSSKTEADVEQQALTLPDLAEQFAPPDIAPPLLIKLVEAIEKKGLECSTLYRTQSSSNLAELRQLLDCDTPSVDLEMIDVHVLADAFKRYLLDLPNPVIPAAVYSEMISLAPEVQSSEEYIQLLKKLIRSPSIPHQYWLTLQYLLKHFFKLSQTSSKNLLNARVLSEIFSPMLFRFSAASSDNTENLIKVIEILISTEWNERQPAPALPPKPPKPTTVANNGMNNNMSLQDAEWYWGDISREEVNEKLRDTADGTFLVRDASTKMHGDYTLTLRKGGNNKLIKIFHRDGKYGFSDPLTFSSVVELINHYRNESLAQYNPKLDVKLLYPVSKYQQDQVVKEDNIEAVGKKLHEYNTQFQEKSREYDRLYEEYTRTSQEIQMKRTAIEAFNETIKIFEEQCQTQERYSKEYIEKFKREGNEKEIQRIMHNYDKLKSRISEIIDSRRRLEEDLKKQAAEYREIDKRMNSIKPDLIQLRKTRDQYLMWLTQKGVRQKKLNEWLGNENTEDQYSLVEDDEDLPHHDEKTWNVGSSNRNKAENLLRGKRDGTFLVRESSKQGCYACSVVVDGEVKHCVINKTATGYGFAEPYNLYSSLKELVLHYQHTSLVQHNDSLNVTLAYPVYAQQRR
Method: Assay 3: ATP Depletion Assay
Compounds to be tested are dissolved in DMSO and directly distributed into a black 384-well plate at 1.25 μL per well. To start the reaction, 25 μL of 10 nM PI3 kinase and 5 μg/mL 1-alpha-phosphatidylinositol (PI) are added into each well followed by 25 μL of 2 μM ATP. The reaction is performed until approx 50% of the ATP is depleted, and then stopped by the addition of 25 μL of KinaseGlo solution purchased from Promega. The stopped reaction is incubated for 5 minutes and the remaining ATP is then detected via luminescence.

[3] = tested on: pSer473 Akt; assay: pSer473 Akt assay to monitor PI3K pathway in A2780 cells (Biological Method 2); assay type: cell-based; details: Homo sapiens, inhibition of Akt phosphorylation
Method: In this method, an assay for measuring the PI3K-mediated pSer473-Akt status after treatment with representative inhibitor compounds of the invention is described.
A2780 cells were cultured in DMEM supplemented with 10% FBS. L-glutamine, sodium pyruvate, and antibiotics. Cells were plated in the same medium at a density of 15,000 cells per well into 96 well tissue culture plates, with outside wells vacant, and allowed to adhere overnight.
Test compounds supplied in DMSO were diluted further into DMSO at 500 times the desired final concentrations before dilution into culture media to 2 times the final concentrations. Equal volumes of 2× compounds were added to the cells in 96 well plates and incubated at 37° C. for one hour. The media and compounds were then removed, the plates chilled and cells lysed in a lysis buffer (150 mM NaCl, 20 mM Tris pH 7.5, 1 mM EDTA, 1 mM EGTA, 1% Triton X-100) supplemented with phosphatase and protease inhibitors. After thorough mixing, lysates were transferred to both pSer473Akt and total Akt assay plates from Meso Scale Discovery (MSD), and incubated overnight with shaking at 4° C.
The assays were read on a SECTOR Imager 6000 instrument (Meso Scale Discovery). Ratios of the signal from pSer473Akt and total Akt assays were used to correct for any variability and the percent inhibition of pSer473Akt from the total signal seen in cells treated with compound versus DMSO alone was calculated and used to determine EC50 values for each compound.

| SMILES | EC50 [1] | IC50 [2] | other results |
| --- | --- | --- | --- |
| Nc1ccc(-c2cc(Nc3cnc4ccc(OC(F)(F)F)cc4c3)nc(N3CCOCC3)n2)cn1 [Compound 496] | – | – | IC50 ([2]; Table 1, Biological Method 1): < 10 µM |
| N#Cc1cccnc1Nc1cc(-c2ccc(N)nc2)nc(N2CCOCC2)n1 [Compound 364] | < 25 µM | < 10 µM | – |
| Nc1ncc(-c2cc(Nc3ccnc4c(C(F)(F)F)cccc34)nc(N3CCOCC3)n2)cn1 [Compound 408] | – | – | IC50 ([2]; Table 1, Biological Method 1): < 1 µM; EC50 ([1]; Biological Method 4): < 10 µM |
| COc1ccc2cc(Nc3cc(-c4ccc(N)nc4)nc(N4CCOCC4)n3)cnc2c1 [Compound 494] | – | – | EC50 ([1]; Biological Method 4): < 10 µM |
| CS(=O)(=O)Nc1ccc(-c2cc(-c3ccc(N)nc3)nc(N3CCOCC3)n2)cn1 [Compound 503] | – | – | IC50 ([2]; Table 1, Biological Method 1): < 1 µM; EC50 ([1]; Biological Method 4): < 10 µM |
| N#Cc1cnc(Nc2cc(-c3cnc(N)nc3C(F)(F)F)nc(N3CCOCC3)n2)s1 [Compound 545] | – | – | IC50 ([2]; Table 1, Biological Method 1): < 1 µM |
| CN(C)C(=O)c1cnc(N2CCOCC2)nc1-c1cnc(N)nc1 [Compound 422] | – | – | IC50 ([2]; Table 1, Biological Method 1): < 10 µM |
| Nc1ccc(-c2cc(NCc3ccncc3)nc(N3CCOCC3)n2)cn1 [Compound 443] | – | – | IC50 ([2]; Table 1, Biological Method 1): < 10 µM |
| COc1ccc(Nc2cc(-c3cnc(N)nc3C(F)(F)F)nc(N3CCOCC3)n2)cn1 [Compound 151] | < 10 µM | < 1 µM | EC50 [3]: < 1 µM |
| CCN(CC)CCc1csc(Nc2cc(-c3cnc(N)cc3C(F)(F)F)nc(N3CCOCC3)n2)n1 [Compound 13] | < 10 µM | – | – |
| Nc1ccc(-c2cc(-c3ccc(N4CCN(CCO)CC4)nc3)nc(N3CCOCC3)n2)cn1 [Compound 499] | – | – | IC50 ([2]; Table 1, Biological Method 1): < 1 µM; EC50 ([1]; Biological Method 4): < 10 µM |
| Nc1cc(C(F)(F)F)c(-c2cc(N3CCN(c4ccccc4)C3=O)nc(N3CCOCC3)n2)cn1 [Compound 18] | < 10 µM | – | – |
| Nc1cc(C(F)(F)F)c(-c2cc(-c3cccnc3NCCO)nc(N3CCOCC3)n2)cn1 [Compound 285] | < 10 µM | < 1 µM | – |
| Nc1ccc(-c2cc(NCc3ccccn3)nc(N3CCOCC3)n2)cn1 [Compound 444] | – | – | IC50 ([2]; Table 1, Biological Method 1): < 10 µM |
| Cn1c(Nc2cc(-c3cnc(N)nc3)nc(N3CCOCC3)n2)nc2ccccc21 [Compound 394] | < 10 µM | < 1 µM | – |
| Cc1c(Nc2nc(-c3ccccc3)cs2)nc(N2CCOCC2)nc1-c1cnc(N)cc1C(F)(F)F [Compound 555] | – | – | IC50 ([2]; Table 1, Biological Method 1): < 10 µM |
| CN(C)CCOc1cncc(-c2cc(-c3cnc(N)cc3C(F)(F)F)nc(N3CCOCC3)n2)c1 [Compound 203] | < 10 µM | < 1 µM | EC50 [3]: < 1 µM |
| CS(=O)(=O)Nc1cc(N)ncc1-c1cc(Nc2cnc3ccccc3c2)nc(N2CCOCC2)n1 [Compound 492] | – | – | IC50 ([2]; Table 1, Biological Method 1): < 10 µM |
| Nc1ccc(-c2cc(NCc3cccnc3)nc(N3CCOCC3)n2)cn1 [Compound 445] | – | – | IC50 ([2]; Table 1, Biological Method 1): < 10 µM |
| CC(=O)Nc1ncc(-c2cc(-c3cnc(N)cc3C(F)(F)F)nc(N3CCOCC3)n2)s1 [Compound 126] | < 10 µM | < 1 µM | EC50 [3]: < 1 µM |

Now from value to molecule, other results behind:

| EC50 [1] | IC50 [2] | SMILES | other results |
| --- | --- | --- | --- |
| < 1 µM | – | Nc1ncc(-c2cc(-c3cnc(N)nc3)nc(N3CCOCC3)n2)cn1 [Compound 279] | – |
| < 1 µM | < 1 µM | CCN(CC)CCc1csc(Nc2cc(-c3cnc(N)nc3C(F)(F)F)nc(N3CCOCC3)n2)n1 [Compound 55] | EC50 [3]: < 1 µM |
| < 1 µM | < 1 µM | Cc1c(Nc2ncc(-c3ccccc3)s2)nc(N2CCOCC2)nc1-c1cnc(N)nc1 [Compound 61] | EC50 [3]: < 1 µM |
| < 10 µM | – | Nc1cc(C(F)(F)F)c(-c2cc(N3CCCCC3=O)nc(N3CCOCC3)n2)cn1 [Compound 17] | – |
| < 10 µM | – | COc1cncc(-c2cc(-c3ccc(N)nc3)nc(N3CCOCC3)n2)c1 [Compound 275] | – |
| < 10 µM | – | Nc1cc(Cl)c(-c2cc(OC3CCOCC3)nc(N3CCOCC3)n2)cn1 [Compound 328] | – |
| < 1 µM | < 1 µM | Nc1ccc(-c2cc(-c3cc4ccccc4nc3NCCN3CCCC3)nc(N3CCOCC3)n2)cn1 [Compound 182] | EC50 [3]: < 1 µM |
| < 1 µM | – | Nc1ncc(-c2cc(-c3ccc(F)nc3)nc(N3CCOCC3)n2)cn1 [Compound 278] | – |
| < 1 µM | < 1 µM | CCN(CC)CCc1csc(Nc2cc(-c3cnc(N)nc3N)nc(N3CCOCC3)n2)n1 [Compound 133] | EC50 [3]: < 1 µM |
| < 10 µM | – | CC(C)(C)Nc1cc(-c2cnc(N)nc2)nc(N2CCOCC2)n1 [Compound 16] | – |
| < 10 µM | – | CC(=O)N1CCC[C@@H](Oc2cc(-c3cnc(N)nc3N)nc(N3CCOCC3)n2)C1 [Compound 29] | – |
| < 10 µM | – | Nc1ncc(-c2cc(-c3cncc(O)c3)nc(N3CCOCC3)n2)cn1 [Compound 274] | – |
| < 10 µM | < 1 µM | Nc1ncc(-c2cc(N[C@H]3CCC[C@@H]3OCc3ccccc3)nc(N3CCOCC3)n2)cn1 [Compound 396] | – |
| < 1 µM | < 1 µM | Nc1ncc(-c2cc(OC3CCN(C(=O)OCc4ccccc4)CC3)nc(N3CCOCC3)n2)c(N)n1 [Compound 146] | EC50 [3]: < 1 µM |
| < 10 µM | – | CS(=O)(=O)c1cccc(-c2cc(-c3cnc(N)cc3C#N)nc(N3CCOCC3)n2)c1 [Compound 92] | – |
| < 1 µM | < 1 µM | CS(=O)(=O)N1CCC[C@H](Oc2cc(-c3cnc(N)nc3N)nc(N3CCOCC3)n2)C1 [Compound 89] | EC50 [3]: < 1 µM |
| < 10 µM | – | CS(=O)(=O)c1cccc(-c2cc(-c3cnc(N)cc3C(F)(F)F)nc(N3CCOCC3)n2)c1 [Compound 95] | – |
| < 10 µM | – | Nc1ncc(-c2cc(OC3CCN(C(=O)OC4CCCC4)CC3)nc(N3CCOCC3)n2)c(N)n1 [Compound 97] | – |
| < 10 µM | – | CC(=O)N1CCC(Oc2cc(-c3cnc(N)nc3N)nc(N3CCOCC3)n2)CC1 [Compound 99] | – |
| < 10 µM | – | CC(C)(C)OC(=O)N1CCC[C@H](Oc2cc(-c3cnc(N)cc3C(F)(F)F)nc(N3CCOCC3)n2)C1 [Compound 20] | – |
| < 10 µM | – | CC(C)N1CCC(Oc2ccc(Nc3cc(-c4cnc(N)cc4C(F)(F)F)nc(N4CCOCC4)n3)cn2)C1 (centres unmarked) [Compound 93] | – |
| < 10 µM | – | CC(=O)N1CCC(Oc2cc(-c3cnc(N)cc3C(F)(F)F)nc(N3CCOCC3)n2)CC1 [Compound 19] | – |
| < 10 µM | – | COCCNc1cc(-c2cnc(N)nc2)nc(N2CCOCC2)n1 [Compound 14] | – |
